What was measured:
[1] = biological target: T1, recombinant human cannabinoid receptor CB2 (Homo sapiens, UniProt P34972); assay: Cannabinoid receptor radioligand binding assay, [3H]-CP 55,940 displacement, hCB2
T1 construct: (cDNA clone) CNR0200000
Method in brief: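 Membranes from hCB2-transfected cells, prepared by 1000×g then 40,000×g centrifugation, resuspended in 20 mM HEPES pH 7.4, 5 mM MgCl2, 1 mM EDTA, 10% sucrose.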

[2] = biological target: T2, human CB2 receptors (Homo sapiens, UniProt P34972); assay: cAMP assay in HEK-293 cells, hCB2 agonist; assay type: cell-based
T2 construct: (cDNA clone) CNR0200000
Method in brief: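 HEK-293 cells stably expressing human CB2, suspended at 1,500,000 cells/mL in HBSS with 10 mM HEPES and 0.1% fatty-acid-free BSA, exposed to test compound plus forskolin (90 uM in the 3× compound solution) for 30 min at 37° C.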

[3] = biological target: T3, human CB2 (hCB2) (Homo sapiens, UniProt P34972); assay: 35S GTPγS binding assay, hCB2 agonist; assay type: biochemical
T3 construct: (cDNA clone) CNR0200000
Method in brief: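 Membranes (5 μg) from cells transfected with hCB2 cDNA in pcDNA3.1+ incubated with SPA beads, 0.1 nM [35S]GTPγS and 20 uM GDP in 50 mM HEPES pH 7.4, 100 mM NaCl, 5 mM MgCl2, 0.001% saponin, ± test compound. Incubation 90 min at room temperature; bound label read by scintillation counting.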

T3 sequence (P34972 whole entry): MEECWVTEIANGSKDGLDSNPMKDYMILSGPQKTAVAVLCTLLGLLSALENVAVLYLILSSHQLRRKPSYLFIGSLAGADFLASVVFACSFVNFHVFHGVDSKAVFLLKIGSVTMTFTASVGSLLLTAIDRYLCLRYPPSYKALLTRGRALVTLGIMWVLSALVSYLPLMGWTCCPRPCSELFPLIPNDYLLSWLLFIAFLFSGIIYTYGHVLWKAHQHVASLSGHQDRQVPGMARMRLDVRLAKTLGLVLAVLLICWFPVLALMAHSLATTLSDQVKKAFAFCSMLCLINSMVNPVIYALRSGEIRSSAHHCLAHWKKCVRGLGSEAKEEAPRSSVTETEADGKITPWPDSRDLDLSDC
T2 sequence (P34972 whole entry): as above
T1 sequence (P34972 whole entry): as above

Row | Compound | IC50 [1] [nM] | EC50 [2] [nM] | EC50 [3] [nM]
1 | COc1ccc(C(=O)c2cc3cc(C)n(CC4CCOCC4)c3s2)cn1 [Compound 144, (6-methoxypyridin-3-yl)(5-methyl-6-((tetrahydro-2H-pyran-4-yl)methyl)-6H-thieno[2,3-b]pyrrol-2-yl)methanone] | 100 to 1000 | < 100 | < 100
2 | COc1ccc(C(=O)c2cc3cc(C)n(CC4CCOCC4)c3s2)c(F)c1 [Compound 145, (2-fluoro-4-methoxyphenyl)(5-methyl-6-((tetrahydro-2H-pyran-4-yl)methyl)-6H-thieno[2,3-b]pyrrol-2-yl)methanone] | < 100 | < 100 | < 100
3 | CCOc1ccc(C(=O)c2cc3cc(C)n(CCN4CCOCC4)c3s2)cn1 [Compound 150, (6-Ethoxypyridin-3-yl)(5-methyl-6-(2-morpholinoethyl)-6H-thieno[2,3-b]pyrrol-2-yl)methanone] | 1000 to 10000 | < 100 | 100 to 1000
4 | COc1ccc(C(=O)c2cc3cc(C)n(CC4CCC(F)(F)CC4)c3s2)cn1 [Compound 170, (6-((4,4-difluorocyclohexyl)methyl)-5-methyl-6H-thieno[2,3-b]pyrrol-2-yl)(6-methoxypyridin-3-yl)methanone] | 100 to 1000 | < 100 | < 100
